{"source": "paper PMC10581520", "about": "(Veterinární Medicína, 2023)", "key": {"patients": {"test_system": "patients", "conditions": "cited from earlier work; for arrhythmia risk category: associated risk of arrhythmia and possible TdP risk, ref Fanoe et al. 2014; for effect on QTc-interval and risk for torsades de pointes (TdP): patients; for risk group classification: ref www.crediblemeds.org"}, "Beagle dogs": {"test_system": "Beagle dogs", "conditions": "cited from earlier work"}, "[1]": {"test_system": "Beagle dog liver microsomes", "assay": "Kinetic study: N-demethylation of CIT and DCIT in Beagle dog liver microsomes", "type": "in vitro ADME", "conditions": "for IC of N-demethylation, Beagle dogs versus humans: liver microsomes, dog data of this study compared with literature human data; for Km1 / Km2 / Vmax1 / Vmax2: dog liver microsomes"}, "[2]": {"assay": "Kinetic study: N-demethylation of CIT and DCIT in Beagle dog liver microsomes", "type": "in vitro ADME", "conditions": "Beagle, dog, liver microsomes, pH 7.4"}, "[3]": {"conditions": "in dogs; ref Matsui et al. 1995; cited from earlier work"}, "Human liver microsomes": {"test_system": "Human liver microsomes", "conditions": "cited from earlier work"}, "[4]": {"test_system": "serotonin [5-hydroxytryptamine (5-HT)] reuptake", "conditions": "compared with S-CIT; ref Hyttel et al. 1992; Hyttel 1993; cited from earlier work"}, "[5]": {"test_system": "dog liver microsomes (CYP2D15, CYP3A12, CYP2C21/41)", "type": "in vitro ADME, Beagle dog", "conditions": "for effect on the production of the DCIT and DDCIT enantiomers: dog liver microsomes, data not shown"}, "[6]": {"test_system": "N-demethylation of DCIT; CYP3A12 (ketoconazole), CYP2C21/41 (omeprazole)", "type": "in vitro ADME, Beagle dog", "conditions": "Beagle, dog, liver microsomes, pH 7.4, probe DCIT 10 and 100 μM, formation of DDCIT"}, "[7]": {"test_system": "N-demethylation of DCIT; CYP2D15 (quinidine)", "type": "in vitro ADME, Beagle dog", "conditions": "Beagle, dog, liver microsomes"}, "[8]": {"conditions": "substrate CIT, metabolite R-DCIT"}, "[9]": {"conditions": "substrate CIT, metabolite S-DCIT"}, "[10]": {"conditions": "substrate DCIT, metabolite DDCIT"}, "[11]": {"conditions": "substrate DCIT, metabolite R-DDCIT"}, "[12]": {"conditions": "substrate DCIT, metabolite S-DDCIT"}, "[13]": {"conditions": "100 μM quinidine, 10 μM DCIT, n = 3"}}, "note": "Where “and” joins values, the source holds several entries; their conditions need not be identical. Equal values may be shown once. Read-outs that look alike come from different tables or passages of the source.", "data": [{"smiles": "CN(C)CCCC1(c2ccc(F)cc2)OCc2cc(C#N)ccc21", "note": "(stereo not shown) [CIT, citalopram]", "values": [{"measurement": "arrhythmia risk category", "setting": "patients", "value": "Class B"}, {"measurement": "effect on QTc-interval and risk for torsades de pointes (TdP)", "setting": "patients", "value": "increase the QTc-interval"}, {"measurement": "risk group classification", "setting": "patients", "value": "risk group 1"}, {"measurement": "convulsive effect in dogs", "setting": "Beagle dogs; dogs, ref Boeck and Overo 1982", "value": "severe convulsive attacks"}, {"measurement": "electrocardiographic changes in dogs", "setting": "Beagle dogs; dogs, ref Boeck and Overo 1982", "value": "no electrocardiographic changes were observed"}, {"measurement": "IC of N-demethylation, Beagle dogs versus humans", "setting": "[1]", "value": "about 10 times higher"}, {"measurement": "Km1", "setting": "[1]; substrate CIT, metabolite DCIT", "value": "1.1 µM and 1.1 ± 0.3 µM"}, {"measurement": "Km2", "setting": "[1]; substrate CIT, metabolite DCIT", "value": "1 006 μM"}, {"measurement": "Vmax1", "setting": "[1]; substrate CIT, metabolite DCIT", "value": "47 ± 3 pmol/(min × mg of protein)"}, {"measurement": "Vmax2", "setting": "[1]; substrate CIT, metabolite DCIT", "value": "591 ± 28 pmol/(min × mg of protein)"}, {"measurement": "Km1", "setting": "[1]; [8]", "value": "1.4 ± 0.5", "unit": "µM"}, {"measurement": "Vmax1", "setting": "[1]; [8]", "value": "21 ± 2 pmol/(min × mg of protein)"}, {"measurement": "Vmax2", "setting": "[1]; [8]", "value": "338 ± 24 pmol/(min × mg of protein)"}, {"measurement": "Km1", "setting": "[1]; [9]", "value": "1.0 ± 0.2", "unit": "µM"}, {"measurement": "Km2", "setting": "[1]; [9]", "value": "848 ± 69", "unit": "µM"}, {"measurement": "Vmax1", "setting": "[1]; [9]", "value": "26 ± 1 pmol/(min × mg of protein)"}, {"measurement": "Vmax2", "setting": "[1]; [9]", "value": "264 ± 10 pmol/(min × mg of protein)"}, {"measurement": "Km at 1 h", "setting": "[2]", "value": "≤ 1.4", "unit": "µM"}, {"measurement": "mean elimination half-life", "setting": "[3]", "value": 9.6, "unit": "h"}, {"measurement": "Km", "setting": "Human liver microsomes; read-out: Km values, stereoselective CIT N-demethylation, human liver microsomes, ref Rochat et al. 1997, Olesen and Linnet 1999, von Moltke et al. 2001", "value": "≥ 17.3", "unit": "µM"}]}, {"smiles": "CNCCCC1(c2ccc(F)cc2)OCc2cc(C#N)ccc21", "note": "(stereo not shown) [DCIT, desmethylcitalopram]", "values": [{"measurement": "IC of N-demethylation, Beagle dogs versus humans", "setting": "[1]", "value": "about 30 times higher"}, {"measurement": "Km1", "setting": "[1]; [10]", "value": "0.6 ± 0.2", "unit": "µM"}, {"measurement": "Km2", "setting": "[1]; [10]", "value": "137 ± 18", "unit": "µM"}, {"measurement": "Vmax1", "setting": "[1]; [10]", "value": "44 ± 4 pmol/(min × mg of protein)"}, {"measurement": "Vmax2", "setting": "[1]; [10]", "value": "155 ± 5 pmol/(min × mg of protein)"}, {"measurement": "Km1", "setting": "[1]; [11]", "value": "0.3 ± 0.2", "unit": "µM"}, {"measurement": "Km2", "setting": "[1]; [11]", "value": "212 µM and 212 ± 24 µM"}, {"measurement": "Vmax1", "setting": "[1]; [11]", "value": "11 ± 2 pmol/(min × mg of protein)"}, {"measurement": "Vmax2", "setting": "[1]; [11]", "value": "105 ± 3 pmol/(min × mg of protein)"}, {"measurement": "Km1", "setting": "[1]; [12]", "value": "0.6 ± 0.1", "unit": "µM"}, {"measurement": "Km2", "setting": "[1]; [12]", "value": "66 µM and 66 ± 11 µM"}, {"measurement": "Vmax1", "setting": "[1]; [12]", "value": "31 ± 3 pmol/(min × mg of protein)"}, {"measurement": "Vmax2", "setting": "[1]; [12]", "value": "55 ± 2 pmol/(min × mg of protein)"}, {"measurement": "Km at 1 h", "setting": "[2]", "value": "≤ 1.4", "unit": "µM"}, {"measurement": "mean elimination half-life", "setting": "[3]", "value": 8.1, "unit": "h"}, {"measurement": "potency as serotonin reuptake inhibitors", "setting": "[4]", "value": "lower than that of S-CIT"}, {"measurement": "IC values, N-demethylation of DCIT enantiomers", "setting": "Human liver microsomes; humans, ref von Moltke et al. 2001", "value": "≤ 1.3 pmol/(min × mg protein)"}, {"measurement": "Km", "setting": "Human liver microsomes; read-out: Km values, N-demethylation of DCIT enantiomers, humans, ref von Moltke et al. 2001", "value": "≥ 72", "unit": "µM"}]}, {"smiles": "N#Cc1ccc2c(c1)COC2(CCCN)c1ccc(F)cc1", "note": "(stereo not shown) [DDCIT, didesmethylcitalopram]", "values": [{"measurement": "plasma level to which DDCIT toxicity is related", "setting": "Beagle dogs; dog, ref Shanks et al. 2009", "value": "≥ 1 000 nM and ≥ 300 ng/ml"}, {"measurement": "mean elimination half-life", "setting": "[3]", "value": 27.8, "unit": "h"}, {"measurement": "potency as serotonin reuptake inhibitors", "setting": "[4]", "value": "lower than that of S-CIT"}]}, {"smiles": "CN(C)CCC[C@@]1(c2ccc(F)cc2)OCc2cc(C#N)ccc21", "note": "[S-CIT, S-citalopram]", "values": [{"measurement": "arrhythmia risk category", "setting": "patients", "value": "Class B"}, {"measurement": "effect on QTc-interval and risk for torsades de pointes (TdP)", "setting": "patients", "value": "increase the QTc-interval"}, {"measurement": "risk group classification", "setting": "patients", "value": "risk group 1"}]}, {"smiles": "Cc1nc2c([nH]1)c(=O)n(C)c(=O)n2Cc1ccco1", "note": "[furafylline]", "values": [{"measurement": "effect on the production of the DCIT and DDCIT enantiomers", "setting": "[5]", "value": "did not notably modify"}]}, {"smiles": "CC(=O)N1CCN(c2ccc(OCC3COC(Cn4ccnc4)(c4ccc(Cl)cc4Cl)O3)cc2)CC1", "note": "(stereo not shown) [ketoconazole]", "values": [{"measurement": "inhibition at 1 h", "setting": "[6]", "value": "< 15", "unit": "%"}]}, {"smiles": "COc1ccc2[nH]c([S+]([O-])Cc3ncc(C)c(OC)c3C)nc2c1", "note": "(stereo not shown) [omeprazole]", "values": [{"measurement": "inhibition at 1 h", "setting": "[6]", "value": "< 15", "unit": "%"}]}, {"smiles": "C=C[C@H]1C[N@@]2CC[C@H]1C[C@@H]2[C@@H](O)c1ccnc2ccc(OC)cc12", "note": "[quinidine]", "values": [{"measurement": "inhibition at 1 h, 100 μM", "setting": "[7]; pH 7.4, probe DCIT 10 μM, formation of R-DDCIT", "value": 80.5, "unit": "%"}, {"measurement": "inhibition at 1 h, 100 μM", "setting": "[7]; pH 7.4, probe DCIT 10 μM, formation of S-DDCIT", "value": 86.4, "unit": "%"}, {"measurement": "inhibition at 1 h, 100 μM", "setting": "[7]; pH 7.4, probe DCIT 100 μM, formation of R-DDCIT", "value": 61.6, "unit": "%"}, {"measurement": "inhibition at 1 h, 100 μM", "setting": "[7]; pH 7.4, probe DCIT 100 μM, formation of S-DDCIT", "value": 57.6, "unit": "%"}, {"measurement": "difference in the production of S-DCIT from CIT in comparison to absence of the inhibitor", "setting": "[5]; 100 μM quinidine, 10 μM CIT, n = 5", "value": "36.9 ± 8.53 pmol/(min × mg protein)"}, {"measurement": "difference of the production of R-DDCIT in comparison to absence of the inhibitor", "setting": "[5]; [13]", "value": "63.3 ± 2.72 pmol/(min × mg protein)"}, {"measurement": "difference of the production of S-DDCIT in comparison to absence of the inhibitor", "setting": "[5]; [13]", "value": "172 ± 6.6 pmol/(min × mg protein)"}]}, {"smiles": "Nc1ccc(S(=O)(=O)Nc2ccnn2-c2ccccc2)cc1", "note": "[sulphaphenazole]", "values": [{"measurement": "effect on the production of the DCIT and DDCIT enantiomers", "setting": "[5]", "value": "did not notably modify"}]}]}
